Source: PubChem BioAssay AID1259407 (Chemical Carcinogenesis Research Information System (CCRIS), 2018)
Activity calls are given as the source filed them. How the calls were made is not given here.

Test system: CCRIS mutagenicity, Ames/micronucleus/aberration tests
Assay: CCRIS mutagenicity studies

In the case of `Nc1ccc2c(c1)C(=O)c1ccccc1C2=O`, the mutagenic call (End Point: IN VITRO CHROMOSOMAL ABERRATIONS, Test System: CHL CELLS, Metabolic Activation: RAT, LIVER, S-9, SODIUM PHENOBARBITAL AND 5,6-BENZOFLAVONE) is reported as “inactive; negative”, the mutagenic call (Test System: AMES SALMONELLA TYPHIMURIUM, Strain/Indicator: TA98, Metabolic Activation: HAMSTER, LIVER, S-9, AROCLOR 1254, Method: STANDARD PLATE) is reported as “active; positive” and the mutagenic call (Test System: AMES SALMONELLA TYPHIMURIUM, Strain/Indicator: TA98, Metabolic Activation: HAMSTER, LIVER, S-9, Method: STANDARD PLATE) is reported as “active; positive”. The mutagenic call (Test System: AMES SALMONELLA TYPHIMURIUM, Strain/Indicator: TA98, Metabolic Activation: MOUSE, LIVER, S-9, AROCLOR 1254, Method: STANDARD PLATE) was “active; positive”, the mutagenic call (Test System: AMES SALMONELLA TYPHIMURIUM, Strain/Indicator: TA98, Metabolic Activation: MOUSE, LIVER, S-9, Method: STANDARD PLATE) was “active; positive” and the mutagenic call (Test System: AMES SALMONELLA TYPHIMURIUM, Strain/Indicator: TA98, Metabolic Activation: NONE, Method: STANDARD PLATE) was “inactive; negative”. For the same compound, the mutagenic call (Test System: AMES SALMONELLA TYPHIMURIUM, Strain/Indicator: TA98, Metabolic Activation: RAT, LIVER, S-9, AROCLOR 1254, Method: STANDARD PLATE) was “active; positive”, the mutagenic call (Test System: AMES SALMONELLA TYPHIMURIUM, Strain/Indicator: TA98, Metabolic Activation: RAT, LIVER, S-9, Method: STANDARD PLATE) was “active; positive” and the mutagenic call (Test System: AMES SALMONELLA TYPHIMURIUM, Strain/Indicator: TA100, Metabolic Activation: HAMSTER, LIVER, S-9, AROCLOR 1254, Method: STANDARD PLATE) was “active; positive”. For the same compound, the mutagenic call (Test System: AMES SALMONELLA TYPHIMURIUM, Strain/Indicator: TA100, Metabolic Activation: HAMSTER, LIVER, S-9, Method: STANDARD PLATE) was “active; positive”, the mutagenic call (Test System: AMES SALMONELLA TYPHIMURIUM, Strain/Indicator: TA100, Metabolic Activation: MOUSE, LIVER, S-9, AROCLOR 1254, Method: STANDARD PLATE) was “active; positive” and the mutagenic call (Test System: AMES SALMONELLA TYPHIMURIUM, Strain/Indicator: TA100, Metabolic Activation: NONE, Method: STANDARD PLATE) was “inactive; negative”. For the same compound, the mutagenic call (Test System: AMES SALMONELLA TYPHIMURIUM, Strain/Indicator: TA100, Metabolic Activation: RAT, LIVER, S-9, AROCLOR 1254, Method: STANDARD PLATE) was “active; positive”, the mutagenic call (Test System: AMES SALMONELLA TYPHIMURIUM, Strain/Indicator: TA1535, Metabolic Activation: HAMSTER, LIVER, S-9, Method: STANDARD PLATE) was “inactive; negative” and the mutagenic call (Test System: AMES SALMONELLA TYPHIMURIUM, Strain/Indicator: TA1535, Metabolic Activation: MOUSE, LIVER, S-9, AROCLOR 1254, Method: STANDARD PLATE) was “inactive; negative”. For the same compound, the mutagenic call (Test System: AMES SALMONELLA TYPHIMURIUM, Strain/Indicator: TA1535, Metabolic Activation: MOUSE, LIVER, S-9, Method: STANDARD PLATE) was “inactive; negative”, the mutagenic call (Test System: AMES SALMONELLA TYPHIMURIUM, Strain/Indicator: TA1535, Metabolic Activation: NONE, Method: STANDARD PLATE) was “inactive; negative” and the mutagenic call (Test System: AMES SALMONELLA TYPHIMURIUM, Strain/Indicator: TA1537, Metabolic Activation: HAMSTER, LIVER, S-9, AROCLOR 1254, Method: STANDARD PLATE) was “active; positive”. For the same compound, the mutagenic call (Test System: AMES SALMONELLA TYPHIMURIUM, Strain/Indicator: TA1537, Metabolic Activation: HAMSTER, LIVER, S-9, Method: STANDARD PLATE) was “active; positive”, the mutagenic call (Test System: AMES SALMONELLA TYPHIMURIUM, Strain/Indicator: TA1537, Metabolic Activation: MOUSE, LIVER, S-9, AROCLOR 1254, Method: STANDARD PLATE) was “active; positive” and the mutagenic call (Test System: AMES SALMONELLA TYPHIMURIUM, Strain/Indicator: TA1537, Metabolic Activation: MOUSE, LIVER, S-9, Method: STANDARD PLATE) was “active; positive”. For the same compound, the mutagenic call (Test System: AMES SALMONELLA TYPHIMURIUM, Strain/Indicator: TA1537, Metabolic Activation: RAT, LIVER, S-9, AROCLOR 1254, Method: STANDARD PLATE) was “active; positive”, the mutagenic call (Test System: AMES SALMONELLA TYPHIMURIUM, Strain/Indicator: TA1537, Metabolic Activation: RAT, LIVER, S-9, Method: STANDARD PLATE) was “active; positive” and the mutagenic call (Test System: AMES SALMONELLA TYPHIMURIUM, Strain/Indicator: TA1538, Metabolic Activation: HAMSTER, LIVER, S-9, AROCLOR 1254, Method: STANDARD PLATE) was “active; positive”. The mutagenic call (Test System: AMES SALMONELLA TYPHIMURIUM, Strain/Indicator: TA1538, Metabolic Activation: HAMSTER, LIVER, S-9, Method: STANDARD PLATE) was “active; positive”, the mutagenic call (Test System: AMES SALMONELLA TYPHIMURIUM, Strain/Indicator: TA1538, Metabolic Activation: MOUSE, LIVER, S-9, AROCLOR 1254, Method: STANDARD PLATE) was “active; positive” and the mutagenic call (Test System: AMES SALMONELLA TYPHIMURIUM, Strain/Indicator: TA1538, Metabolic Activation: MOUSE, LIVER, S-9, Method: STANDARD PLATE) was “active; positive”. The mutagenic call (Test System: AMES SALMONELLA TYPHIMURIUM, Strain/Indicator: TA1538, Metabolic Activation: NONE, Method: STANDARD PLATE) was “inactive; negative”, the mutagenic call (Test System: AMES SALMONELLA TYPHIMURIUM, Strain/Indicator: TA1538, Metabolic Activation: RAT, LIVER, S-9, AROCLOR 1254, Method: STANDARD PLATE) was “active; positive” and the mutagenic call (Test System: AMES SALMONELLA TYPHIMURIUM, Strain/Indicator: TA1538, Metabolic Activation: RAT, LIVER, S-9, Method: STANDARD PLATE) was “active; positive”. For the same compound, the mutagenic call (Test System: E. COLI, Strain/Indicator: WP2 UVRA, Metabolic Activation: HAMSTER, LIVER, S-9, Method: STANDARD PLATE) was “inactive; negative”, the mutagenic call (Test System: E. COLI, Strain/Indicator: WP2 UVRA, Metabolic Activation: MOUSE, LIVER, S-9, Method: STANDARD PLATE) was “inactive; negative” and the mutagenic call (Test System: E. COLI, Strain/Indicator: WP2 UVRA, Metabolic Activation: NONE, Method: STANDARD PLATE) was “inactive; negative”. For the same compound, the mutagenic call (Test System: E. COLI, Strain/Indicator: WP2 UVRA, Metabolic Activation: RAT, LIVER, S-9, Method: STANDARD PLATE) was “inactive; negative” and the mutagenic call (Test System: MOUSE LYMPHOMA, Strain/Indicator: L5178Y (TK+/TK-), Metabolic Activation: NONE, Method: SUSPENSION/PLATE) was “active; positive”.
